Results published in US20120244074A1, “LABELLED INTEGRIN BINDERS” (priority 2009, published 2012).

Experiments:
integrin receptors αvβ3 = target: T1, integrin receptors αvβ3 (Homo sapiens, UniProt P05106+P06756); test: In vitro affinity assessment αvβ3: competition with radiolabelled Echistatin on membrane fractions of EA-Hy 926; format: binding; settings: for competing out binding of the radiolabelled Echistatin: highest concentration tested 144 μM, FIG. 1
T1 construct: membrane fractions prepared from human endothelial adenocarcinoma cell line EA-Hy 926; endogenous in cells; host or cells: EA-Hy 926 (human endothelial cell line), membrane fractions
Description: Affinity for integrin receptors αvβ3 was measured by competition experiments with [[…]]-Echistatin on membrane fractions prepared from human endothelial adenocarcinoma cell line EA-Hy 926 using a homogenizer and isolated by ultracentrifugation. Dilutions of test compounds were mixed with the radiotracer and membrane fraction prior to incubation for 1 h at 37° C. After a washing procedure the membranes were harvested on a filter using Skatron micro harvester. The filter spots were finally excised and counted in a Packard γ-counter. The Kd of [[…]]-Echistatin was calculated using Prism software. […] The compounds tested were EMD527040 (benchmark), the cPn216-chelated compound of Example 2(viii) and the tetraamine-chelated compound of Example 3(ii).

[1] = system: lung adenocarcinoma cell line H2009; test: Flow cytometry evaluation of binding on H2009 cells; format: cell-based; settings: 100 nM, incubation time 1 h at 37° C.
Description: Binding of imaging agent 7 (prepared as described in Example 9) was studied using flow cytometric analysis (Beckman Coulter FC500 MPL) on lung adenocarcinoma cell line H2009 (Cancer Res; 67: 5889-5895).

Compound | competing out binding of the radiolabelled Echistatin (integrin receptors αvβ3) | also measured
C/C(=N/O)C(C)(C)NCCC(CCNC(=O)CCCC(=O)NC[C@H](NC(=O)CCCCNc1ccccn1)C(=O)NC(CC(=O)O)c1cc(Cl)cc(Cl)c1)CCNC(C)(C)/C(C)=N\O (stereo partly drawn) [Example 2(viii), (6S,Z)-3-(3,5-dichlorophenyl)-22-(hydroxyimino)-17-(2-(((Z)-3-(hydroxyimino)-2-methylbutan-2-yl)amino)ethyl)-21,21-dimethyl-5,9,13-trioxo-6-(5-(pyridin-2-ylamino)pentanamido)-4,8,14,20-tetraazatricosan-1-oic acid] | not possible to compete out binding of the radiolabelled Echistatin completely | –
O=C(O)CC(NC(=O)[C@H](COCc1ccccc1)NC(=O)CCCCNc1ccccn1)c1cc(Cl)cc(Cl)c1 (some centres unmarked) [EMD527040, reference compound] | not possible to compete out binding of the radiolabelled Echistatin completely | –
NCCNCC(CNCCN)CC(=O)NC[C@H](NC(=O)CCCCNc1ccccn1)C(=O)NC(CC(=O)O)c1cc(Cl)cc(Cl)c1 (stereo partly drawn) [Example 3(ii), 3-((S)-3-(4-(2-Aminoethylamino)-3-((2-aminoethylamino)methyl)butanamido)-2-(5-(pyridin-2-ylamino)pentanamido)propanamido)-3-(3,5-dichlorophenyl)propanoic acid] | not possible to compete out binding of the radiolabelled Echistatin completely | –
1-(Cy5**-amido)-45-(3,5-dichlorophenyl)-39,43-dioxo-42-(5-(pyridin-2-ylamino)pentanamido)-3,6,9,12,15,18,21,24,27,30,33,36-dodecaoxa-40,44-diazaheptatetracontan-47-oic acid [imaging agent 7] | – | positive uptake, share of the cells [1]: around 40%
Echistatin [reference compound] | – | Ki (integrin receptors αvβ3; competition with [^115I]-Echistatin, EA-Hy 926 membrane fraction, 1 h at 37° C.): 0.14 nM
